This passage reports inhibition results from PMC8811433 (The Journal of International Medical Research, 2022).

The target of the experiment is Lysine-specific demethylase 1 (LSD1) (Homo sapiens, UniProt O60341). Put plainly: in vitro LSD1 activity assay. The experiment is classed as biochemical. The following applies: read-out: % inhibition at 1000 nM.

In the case of `C=C1C(=O)O[C@H]2[C@H]1[C@H](OC(=O)/C(C)=C/CO)CC(=C)[C@@H]1C=C[C@@](C)(O)[C@H]21` [eupalinilide B], the inhibition (commonly the share of the control response that was lost under treatment) at 1 µM was determined as 78%.
